Test results as given in US20250179083A1, “TRICYCLIC TRIAZOLO COMPOUNDS AS DGK INHIBITORS” (Incyte Corporation, priority 2023, published 2025).

What was measured:
DGKα = target: T1, DGKα (Homo sapiens, UniProt P23743); assay: In vitro DGKα inhibition assay (ADP-Glo); type: biochemical; conditions: His-tagged human recombinant DGKα 0.1 nM, 50 μM ATP, 20 μM DLG, 90 minute incubation
T1 construct: His; purchased Signal Chem D21-10BH
Procedure, shortened: (§1)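 His-tagged human DGKα (0.1 nM, 50 μM ATP) or DGKζ (0.4 nM, 30 μM ATP), each with 20 μM DLG lipid substrate, in Tris pH 7.5 buffer with Mg2+, Ca2+, CHAPS.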

DGKζ = target: T2, DGKζ (Homo sapiens, UniProt Q13574); assay: In vitro DGKζ inhibition assay (ADP-Glo); type: biochemical; conditions: His-tagged human recombinant DGKζ 0.4 nM, 30 μM ATP, 20 μM DLG, 90 minute incubation
T2 construct: His; purchased Signal Chem D30-10H
T2 sequence (Q13574 whole entry): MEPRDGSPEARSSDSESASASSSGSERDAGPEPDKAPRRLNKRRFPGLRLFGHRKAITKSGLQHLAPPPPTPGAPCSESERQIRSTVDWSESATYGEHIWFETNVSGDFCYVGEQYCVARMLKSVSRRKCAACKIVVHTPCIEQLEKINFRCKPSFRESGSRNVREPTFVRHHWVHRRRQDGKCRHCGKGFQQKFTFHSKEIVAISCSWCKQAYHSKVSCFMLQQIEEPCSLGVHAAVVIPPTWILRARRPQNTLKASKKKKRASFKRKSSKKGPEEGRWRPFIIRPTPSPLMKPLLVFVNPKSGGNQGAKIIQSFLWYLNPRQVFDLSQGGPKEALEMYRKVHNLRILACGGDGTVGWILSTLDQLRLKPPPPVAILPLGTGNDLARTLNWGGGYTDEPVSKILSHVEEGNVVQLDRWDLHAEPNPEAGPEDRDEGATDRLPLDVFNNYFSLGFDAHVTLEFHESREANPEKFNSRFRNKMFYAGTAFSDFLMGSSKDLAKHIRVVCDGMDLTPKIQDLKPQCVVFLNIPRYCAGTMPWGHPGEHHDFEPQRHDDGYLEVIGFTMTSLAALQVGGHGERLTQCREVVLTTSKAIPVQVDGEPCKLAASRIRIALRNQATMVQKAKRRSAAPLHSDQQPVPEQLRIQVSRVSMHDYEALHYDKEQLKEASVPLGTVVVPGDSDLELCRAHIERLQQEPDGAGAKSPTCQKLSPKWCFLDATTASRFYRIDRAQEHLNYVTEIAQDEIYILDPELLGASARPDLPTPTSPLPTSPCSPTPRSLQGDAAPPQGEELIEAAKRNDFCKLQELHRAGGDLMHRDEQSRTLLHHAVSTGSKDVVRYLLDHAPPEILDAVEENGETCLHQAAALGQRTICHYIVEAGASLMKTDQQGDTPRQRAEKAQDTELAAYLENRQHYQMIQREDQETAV
Procedure, shortened: as §1

T1 sequence (P23743 whole entry): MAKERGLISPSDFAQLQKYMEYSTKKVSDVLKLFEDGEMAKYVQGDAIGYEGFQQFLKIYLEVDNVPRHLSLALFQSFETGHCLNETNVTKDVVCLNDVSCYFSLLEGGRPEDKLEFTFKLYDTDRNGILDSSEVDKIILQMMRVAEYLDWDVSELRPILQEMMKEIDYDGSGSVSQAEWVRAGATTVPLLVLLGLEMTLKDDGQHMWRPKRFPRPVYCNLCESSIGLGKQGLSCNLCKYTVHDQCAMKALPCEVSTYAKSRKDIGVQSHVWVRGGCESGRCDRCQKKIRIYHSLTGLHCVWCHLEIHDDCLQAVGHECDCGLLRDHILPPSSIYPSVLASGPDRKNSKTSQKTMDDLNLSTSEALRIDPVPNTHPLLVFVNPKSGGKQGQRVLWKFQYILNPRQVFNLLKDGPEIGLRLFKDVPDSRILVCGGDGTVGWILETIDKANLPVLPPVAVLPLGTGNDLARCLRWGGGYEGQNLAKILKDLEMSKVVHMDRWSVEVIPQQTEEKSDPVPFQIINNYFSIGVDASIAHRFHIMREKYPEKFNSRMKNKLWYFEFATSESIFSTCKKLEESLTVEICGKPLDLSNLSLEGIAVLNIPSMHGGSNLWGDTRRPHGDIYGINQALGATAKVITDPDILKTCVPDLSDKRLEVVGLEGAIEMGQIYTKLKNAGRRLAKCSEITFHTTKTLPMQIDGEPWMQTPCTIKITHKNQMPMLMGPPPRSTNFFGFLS

Compound	IC50 (DGKα) [nM]	IC50 (DGKζ) [nM]
C[C@@H]1CN(c2nc3nncn3c3c2ncn3C[C@@H]2CCCO2)[C@@H](C)CN1C(c1ccc(Cl)cc1F)C1CC(F)(F)C1 (stereo partly drawn) [Example 31, 4-((2S,5R)-4-((4-Chloro-2-fluorophenyl)(3,3-difluorocyclobutyl)methyl)-2,5-dimethylpiperazin-1-yl)-1-(((S)-tetrahydrofuran-2-yl)methyl)-1H-[1,2,4]triazolo[3,4-b]purine]	< 20	< 20
C[C@@H]1CN(c2nc3nncn3c3c2ncn3C[C@@H]2CCCO2)[C@@H](C)CN1C(c1ccc(C(F)F)c(F)c1)C1CC(F)(F)C1 (stereo partly drawn) [Example 2, 4-((2S,5R)-4-((3,3-Difluorocyclobutyl)(4-(difluoromethyl)-3-fluorophenyl)methyl)-2,5-dimethylpiperazin-1-yl)-1-(((S)-tetrahydrofuran-2-yl)methyl)-1H-[1,2,4]triazolo[3,4-b]purine]	< 20	< 20
CC(CC(c1ccc(Cl)cc1)N1C[C@H](C)N(c2nc3nncn3c3c2ncn3C[C@@H]2CCCO2)C[C@H]1C)C(F)(F)F (single isomer, unassigned) [Example 12]	< 20	< 20
Cc1nc2c(N3C[C@H]4CC[C@@H](C3)N4C(c3ccc(C(F)(F)F)cc3)C3CC(F)(F)C3)nc3nncn3c2n1C[C@@H]1CCCO1 (stereo partly drawn) [Example 81, 4-((1R,5S)-8-((3,3-Difluorocyclobutyl)(4-(trifluoromethyl)phenyl)methyl)-3,8-diazabicyclo[3.2.1]octan-3-yl)-2-methyl-1-(((S)-tetrahydrofuran-2-yl)methyl)-1H-[1,2,4]triazolo[3,4-b]purine]	< 20	< 20
Cc1nc2c(N3C[C@@H](C)N(C(c4ccc(C(F)F)cc4F)C4CC(F)(F)C4)C[C@@H]3C)nc3nncn3c2n1C[C@@H]1CCCO1 (stereo partly drawn) [Example 3, 4-((2S,5R)-4-((3,3-Difluorocyclobutyl)(4-(difluoromethyl)-2-fluorophenyl)methyl)-2,5-dimethylpiperazin-1-yl)-2-methyl-1-(((S)-tetrahydrofuran-2-yl)methyl)-1H-[1,2,4]triazolo[3,4-b]purine]	< 20	< 20
CC[C@@H]1CN(c2nc3nncn3c3c2nc(C)n3C[C@@H]2CCCO2)[C@@H](C)CN1[C@@H](C)c1ccc(C(F)(F)F)cc1 [Example 41, 4-((2S,5R)-5-Ethyl-2-methyl-4-((S)-1-(4-(trifluoromethyl)phenyl)ethyl)piperazin-1-yl)-2-methyl-1-(((S)-tetrahydrofuran-2-yl)methyl)-1H-[1,2,4]triazolo[3,4-b]purine]	< 20	< 20
CC[C@@H]1CN(c2nc3nncn3c3c2nc(C)n3C[C@@H]2CCCO2)[C@@H](C)CN1Cc1ccc(C(F)(F)F)cc1 [Example 36, 4-((2S,5R)-5-Ethyl-2-methyl-4-(4-(trifluoromethyl)benzyl)piperazin-1-yl)-2-methyl-1-(((S)-tetrahydrofuran-2-yl)methyl)-1H-[1,2,4]triazolo[3,4-b]purine]	< 20	< 20
CC[C@@H]1CN(c2nc3nncn3c3c2ncn3C[C@@H]2CCCO2)[C@@H](C)CN1C(c1ccc(Cl)cc1)C1CC(F)(F)C1 (stereo partly drawn) [Example 34, 4-((2S,5R)-4-((4-Chlorophenyl)(3,3-difluorocyclobutyl)methyl)-5-ethyl-2-methylpiperazin-1-yl)-1-(((S)-tetrahydrofuran-2-yl)methyl)-1H-[1,2,4]triazolo[3,4-b]purine]	< 20	< 20
C[C@@H]1CN(c2nc3nncn3c3c2ncn3C[C@@H]2CCCO2)[C@@H](C)CN1C(c1ccc(Cl)c(F)c1)C1CC(F)(F)C1 (stereo partly drawn) [Example 30, 4-((2S,5R)-4-((4-Chloro-3-fluorophenyl)(3,3-difluorocyclobutyl)methyl)-2,5-dimethylpiperazin-1-yl)-1-(((S)-tetrahydrofuran-2-yl)methyl)-1H-[1,2,4]triazolo[3,4-b]purine]	< 20	< 20

The remaining lines, values ahead:

IC50 (DGKα) [nM]	IC50 (DGKζ) [nM]	Compound
< 20	< 20	CC[C@@H](c1ccc(Cl)cc1)N1C[C@H](C)N(c2nc3nncn3c3c2nc(C)n3C[C@@H]2CCCO2)C[C@H]1C [Example 85, 4-((2S,5R)-4-((S)-1-(4-Chlorophenyl)propyl)-2,5-dimethylpiperazin-1-yl)-2-methyl-1-(((S)-tetrahydrofuran-2-yl)methyl)-1H-[1,2,4]triazolo[3,4-b]purine]
< 20	< 20	C[C@@H]1CN(c2nc3nncn3c3c2ncn3CC2(O)CCCC2)[C@@H](C)CN1C(c1ccc(Cl)cc1)c1ccc(Cl)cc1 [Example 44, 1-((4-((2S,5R)-4-(Bis(4-chlorophenyl)methyl)-2,5-dimethylpiperazin-1-yl)-1H-[1,2,4]triazolo[3,4-b]purin-1-yl)methyl)cyclopentan-1-ol]
< 20	< 20	Cc1nc2c(N3C[C@@H](C)N([C@@H](c4ccc5cc(C(F)(F)F)ccc5n4)C(C)C)C[C@@H]3C)nc3nncn3c2n1C[C@@H]1CCCO1 [Example 64, 4-((2S,5R)-2,5-dimethyl-4-((R)-2-methyl-1-(6-(trifluoromethyl)quinolin-2-yl)propyl)piperazin-1-yl)-2-methyl-1-(((S)-tetrahydrofuran-2-yl)methyl)-1H-[1,2,4]triazolo[3,4-b]purine]
< 20	< 20	Cc1nc2c(N3C[C@@H](C)N(Cc4ccc(C(F)(F)F)c(F)c4)C[C@@H]3C)nc3nncn3c2n1C[C@@H]1CCCO1 [Example 75, 4-((2S,5R)-4-(3-Fluoro-4-(trifluoromethyl)benzyl)-2,5-dimethylpiperazin-1-yl)-2-methyl-1-(((S)-tetrahydrofuran-2-yl)methyl)-1H-[1,2,4]triazolo[3,4-b]purine]
< 20	< 20	Cc1nc2c(N3C[C@@H](C)N([C@H](c4ccc5cc(C(F)(F)F)ccc5n4)C(C)C)C[C@@H]3C)nc3nncn3c2n1C[C@@H]1CCCO1 [Example 63, 4-((2S,5R)-2,5-Dimethyl-4-((S)-2-methyl-1-(6-(trifluoromethyl)quinolin-2-yl)propyl)piperazin-1-yl)-2-methyl-1-(((S)-tetrahydrofuran-2-yl)methyl)-1H-[1,2,4]triazolo[3,4-b]purine]
< 20	< 20	Cc1nc2c(N3C[C@@H](C)N(Cc4c(F)cc(Cl)cc4F)C[C@@H]3C)nc3nncn3c2n1C[C@@H]1CCCO1 [Example 73, 4-((2S,5R)-4-(4-Chloro-2,6-difluorobenzyl)-2,5-dimethylpiperazin-1-yl)-2-methyl-1-(((S)-tetrahydrofuran-2-yl)methyl)-1H-[1,2,4]triazolo[3,4-b]purine]
< 20	< 20	Cc1nc2c(N3C[C@@H](C)N(Cc4ccc(C(F)(F)F)cc4F)C[C@@H]3C)cc3nncn3c2n1C[C@@H]1CCCO1 [Example 69, 4-((2S,5R)-4-(2-Fluoro-4-(trifluoromethyl)benzyl)-2,5-dimethylpiperazin-1-yl)-2-methyl-1-(((S)-tetrahydrofuran-2-yl)methyl)-1H-imidazo[4,5-e][1,2,4]triazolo[4,3-a]pyridine]
< 20	< 20	C[C@@H]1CN(c2nc3nncn3c3c2ncn3C[C@@H]2CCCO2)[C@@H](C)CN1Cc1ccc(Cl)cc1F [Example 48, 4-((2S,5R)-4-(4-Chloro-2-fluorobenzyl)-2,5-dimethylpiperazin-1-yl)-1-(((S)-tetrahydrofuran-2-yl)methyl)-1H-[1,2,4]triazolo[3,4-b]purine]
< 20	< 20	Cc1nc2c(N3C[C@@H](C)N(Cc4ccc(Cl)cc4F)C[C@@H]3C)nc3nncn3c2n1C[C@@H]1CCCO1 [Example 71, 4-((2S,5R)-4-(4-Chloro-2-fluorobenzyl)-2,5-dimethylpiperazin-1-yl)-2-methyl-1-(((S)-tetrahydrofuran-2-yl)methyl)-1H-[1,2,4]triazolo[3,4-b]purine]
